Values joined by “and” are separate entries in the source; they are usually repeats but may differ in a detail not shown here. Equal values may be shown once.
Tested on: patients suffering from shortness of breath (SOB), acute coronary syndrome, acute heart failure (AHF), arrhythmia, asthma exacerbation, bronchitis, chest pain …
Parameters: species or system human
Conditions: in vivo
Excerpt: Suitable threshold levels for the stratification of subjects into different groups (categories) have to be determined for each particular combination of vasoactive hormone or fragments thereof or precursors or fragments thereof, medication and disease. This can e.g. be done by grouping a reference population of patients according to their level of vasoactive hormone into certain quantiles, e.g. tertiles, quartiles, quintiles or even according to suitable percentiles. […] A HR around 1 (e.g. +/−0.1) indicates no elevated risk but also no benefit from medication for the particular group of patients.
Survival rates, i.e. the proportion of patients surviving at a given time after entry into the studies, are plotted in the appended figures over time for different combinations of a particular vasoactive hormone with a particular medication. The patients have been stratified into quintiles according to their respective hormone levels. […] For some cases, two or more quintiles have been pooled were appropriate. Hazard ratios (HR) have been calculated for various combinations of particular vasoactive hormones with particular medications. HR have also been calculated for particular quintiles and/or pooled quintiles and compared to overall HR for each combination.

Structure (SMILES): CC(=O)CC(c1ccccc1)c1c(O)c2ccccc2oc1=O (stereo not shown) [Warfarin]
- HR Medicament (overall patient group): 1.6 and 1 and 1.3 and 0.8

— patent US9229013B2, “Vasoactive hormone-based stratification of patients suffering from diseases related to endothelial function/dysfunction” (B.R.A.H.M.S GMBH, priority 2009, dated 2016)
